ED50 and Ki data for 11 molecules are collected here from patent publication EP0478964A1, “Pyrazoloquinoline derivatives” (SHIONOGI SEIYAKU KABUSHIKI KAISHA, priority 1990, dated 1992).

SMILES strings stand for the structures.

Assay [1] has as its system convulsion induced by pentylenetetrazol. Nature of the assay: Test of potentiating convulsion induced by pentylenetetrazol (inverse agonist activity). The assay is classed as in vivo, mice. The following applies: Mus musculus, iv, read-out: ED₅₀. Here is the method: Inverse agonist activity was evaluated by the following procedure. A certain amount of a test compound was administered intravenously to 8-16 male mice per group, followed by pentylenetetrazol at a subcuataneous dose of 90 mg/kg. The dose (ED₅₀) at which 50% of mice stayed alive, was calculated by the Probit method.

For a further assay, the target named is BDZ receptor. Nature of the assay: BDZ receptor binding assay (displacement of tritium labeled diazepam). The following applies: cerebral cortex of Wistar rats; 2nM tritium labeled diazepam; 0 °C for 60 minutes; Ki calculated from IC50. The method, then: This test was carried out according to the modified method of Möhler & Okada, Science, 198, 849-851 (1977).
The BDZ receptor preparation was provided from the cerebral cortex of Wistar rats (male, 11 to 13 week-old). Inhibitory activities of the test compound were determined by the specific binding strengh of tritium labeled diazepam to the receptor. 2nM tritium labeled diazepam and an aqeuous solution of the test compound at 5 or 6 different concentrations were incubated at 0 °C for 60 minutes. The 50 % inhibitory concentration (IC₅₀) was measured by the concentration-response curve.
The inhibitory constant (Ki) was calculated according to the following equation, in which Kd is the dissociation constant of the tritium labeled diazepam and L is the concentration of the labeled ligand. [formula]

For assay [2], the system named is convulsion induced by pentylenetetrazol. Nature of the assay: Test of suppressing convulsion induced by pentylenetetrazol (agonist activity). The settings on record: Mus musculus; male mice; test compound intravenously; pentylenetetrazol subcutaneous 125 mg/kg; dose at which 50% of mice was alive; Probit method; read-out: ED₅₀. It counts as in vivo. The method, then:
Agonist activity was evaluated by the following procedure. A certain amount of a test compound was administered intravenously to 8-16 male mice per group, followed by pentylenetetrazol at a subcuataneous dose of 125 mg/kg. The dose (ED₅₀) at which 50% of mice was alive, was calculated by the Probit method.

Broadly, the Ki is the equilibrium dissociation constant of an inhibitor or competing ligand from its target. As for `O=c1c2c[nH]c3ccccc3c-2nn1C1=CCCC1` [I-1, 2-(Cyclopenten-1-yl)-2,5-dihydro-3H-pyrazolo[4,3-c]quinolin-3-one], in assay [1] (male mice, test compound intravenously, pentylenetetrazol subcutaneous 90 mg/kg, dose at which 50% of mice stayed alive, Probit method), the ED50 turned out to be 1.07 mg/kg. Also, the inhibitory constant (Ki) at BDZ receptor is 0.52 nM.

In the case of `O=c1c2c[nH]c3ccc(F)cc3c-2nn1C1=CCCC1` [I-31], in assay [1], the ED50 worked out at 0.81 mg/kg. Further, the Ki on BDZ receptor is 0.48 nM.

Turning to `CC1CC=C(n2nc3c4ccccc4[nH]cc-3c2=O)CC1` (stereo not drawn) [I-25], the ED50 in assay [2] is 0.69 mg/kg. Further, the Ki on BDZ receptor was 3.1 nM.

On to `O=c1c2c[nH]c3ccccc3c-2nn1C1=CCCCC1` [I-16], for which the Ki on BDZ receptor is 1.5 nM.

Turning to `Cc1ccc2[nH]cc3c(=O)n(C4=CCCC4)nc-3c2c1` [I-36], the ED50 in assay [1] is 0.4 mg/kg. In addition, the inhibitory constant (Ki) at BDZ receptor was 0.48 nM.

For the molecule `CC(C)/C=C/n1nc2c3ccccc3[nH]cc-2c1=O` [I-21], the ED50 in assay [2] worked out at 0.72 mg/kg. Besides, at BDZ receptor, the Ki was 0.98 nM.

Regarding `C/C=C/n1nc2c3ccccc3[nH]cc-2c1=O` [I-24], the ED50 in assay [1] turned out to be 0.23 mg/kg. Moreover, the inhibition constant Ki at BDZ receptor is 1 nM.

As for `COc1ccc2c3nn(C4=CCCC4)c(=O)c-3c[nH]c2c1` [I-34], on BDZ receptor, the inhibition constant Ki was 2.1 nM.

Turning to `COc1ccc2[nH]cc3c(=O)n(C4=CCOC4)nc-3c2c1` [I-11, 8-Methoxy-2-(2,5-dihydrofuran-3-yl)-2,5-dihydro-3H-pyrazolo[4,3-c]quinolin-3-one], the inhibitory constant (Ki) on BDZ receptor is 0.69 nM.

Turning to `CC1(C)C=C(n2nc3c4ccccc4[nH]cc-3c2=O)CO1` [I-39], the ED50 in assay [2] was determined as 0.19 mg/kg. Moreover, on BDZ receptor, the inhibition constant Ki was 0.29 nM.

With `O=c1c2c[nH]c3ccccc3c-2nn1C1=CCOC1` [I-38], the inhibition constant (Ki) on BDZ receptor is 0.59 nM.
